Data published in ChEMBL document CHEMBL3997802, “Design, Synthesis, and Evaluation of Isaindigotone Derivatives To Downregulate c-myc Transcription via Disrupting the Interaction of NM23-H2 with G-Quadruplex” (J Med Chem, 2017).
Calls of active or inactive are those of the source. The rule behind the calls is not given here.

Assays:
[1] = Inhibition of 5'-biotin-labeled c-Myc Pu18 G-quadruplex DNA (unknown origin) interaction with His-tagged NM23-H2 assessed as ratio of Kd for NM23-H2-DNA complex in presence of compound to Kd for […]-DNA complex in absence of compound at 20 uM preincubated with NM23-H2 for 1 hr followed by addition of DNA measured after overnight incubation by ELISA
[2] = Inhibition of thiazole orange binding to c-Myc Pu18 G-quadruplex DNA (unknown origin) at 10 uM after 30 secs by fluorescence spectrophotometric method
[3] = Inhibition of thiazole orange binding to c-Myc Pu27 G-quadruplex DNA (unknown origin) at 10 uM after 30 secs by fluorescence spectrophotometric method
[4] = Inhibition of 5'-biotin-labeled c-Myc Pu18 G-quadruplex DNA (unknown origin) interaction with His-tagged NM23-H2 at 20 uM preincubated with NM23-H2 for 1 hr followed by addition of DNA measured after overnight incubation by ELISA
[5] = molecular target: T1, Nucleoside diphosphate kinase B (Homo sapiens, UniProt P22392); experiment: Binding affinity to NT647-labeled His-tagged NM23-H2 (unknown origin) expressed in Escherichia coli BL21(DE3) up to 500 uM after 30 mins by microscale thermophoresis method
Homo sapiens [6] = species on record: Homo sapiens; experiment: Inhibition of NM23-H2 binding to c-Myc promoter DNA in human SiHa cell nuclear extract at 1.3 to 2.6 uM after 4 days by ChIP analysis
Homo sapiens [7] = species on record: Homo sapiens; experiment: Inhibition of NM23-H2 binding to c-Myc promoter DNA in human SiHa cell nuclear extract at 4.85 to 9.7 uM after 4 days by ChIP analysis
[8] = molecular target: T1, Nucleoside diphosphate kinase B; experiment: Binding affinity to NT647-labeled His-tagged NM23-H2 (unknown origin) expressed in Escherichia coli BL21(DE3) after 30 mins by microscale thermophoresis method
[9] = Stabilization of 5'-FAM/3'-TAMRA labeled c-Myc Pu18 G-quadruplex DNA (unknown origin) assessed as change in melting temperature at 1 uM after overnight incubation by FRET assay

T1 sequence (P22392 whole entry): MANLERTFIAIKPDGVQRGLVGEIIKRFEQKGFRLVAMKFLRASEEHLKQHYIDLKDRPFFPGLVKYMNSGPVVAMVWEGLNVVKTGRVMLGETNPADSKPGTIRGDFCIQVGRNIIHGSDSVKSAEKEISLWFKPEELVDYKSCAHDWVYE

Compound | Ratio [1] | inhibition [4] | other results
CN1CCN(c2cc3nc4n(c(=O)c3cc2F)CC/C4=C\c2ccc(C(=O)NCCN3CCCCC3)cc2)CC1 | 1.4 to 4.3 |  | 
CCN(CC)CCCNC(=O)c1ccc(/C=C2\CCn3c2nc2cc(NCCN4CCCC4)c(F)cc2c3=O)cc1 |  | Active | inhibition [2]: Active; inhibition [3]: Active
O=C(NCCCN1CCCC1)c1ccc(/C=C2\CCn3c2nc2cc(NCCCN4CCCC4)c(F)cc2c3=O)cc1 |  | Active | inhibition [2]: Active; inhibition [3]: Active
CN1CCN(c2cc3nc4n(c(=O)c3cc2F)CCC/C4=C\c2ccc(C(=O)NCCN3CCCCC3)cc2)CC1 |  | Active | 
CN(C)CCCNC(=O)c1ccc(/C=C2\CCn3c2nc2cc(N4CCN(C)CC4)c(F)cc2c3=O)cc1 |  | Active | 
CN1CCN(c2cc3nc4n(c(=O)c3cc2F)CCC/C4=C\c2ccc(NC(=O)CCN3CCCC3)cc2)CC1 | 1.3 |  | 
CN1CCN(c2cc3nc4n(c(=O)c3cc2F)CCC/C4=C\c2ccc(NC(=O)CCN3CCCCC3)cc2)CC1 |  | Active | 
O=C(CCN1CCCCC1)Nc1ccc(/C=C2\CCn3c2nc2cc(N4CCCCC4)c(F)cc2c3=O)cc1 | 1.4 to 4.3 |  | 
CN1CCN(c2cc3nc4n(c(=O)c3cc2F)CC/C4=C\c2ccc(NC(=O)CN3CCN(CCO)CC3)cc2)CC1 |  | Active | Activity [5]: Active
O=C(CCN1CCCC1)Nc1ccc(/C=C2\CCn3c2nc2cc(N4CCCCC4)c(F)cc2c3=O)cc1 | 1.4 to 4.3 |  | inhibition (Homo sapiens [6]): inactive
CCN(CC)CCCNC(=O)c1ccc(/C=C2\CCn3c2nc2cc(N4CCN(C)CC4)c(F)cc2c3=O)cc1 |  | Active | 
CCN(CC)CCCNC(=O)c1ccc(/C=C2\CCn3c2nc2cc(NCCCN4CCCC4)c(F)cc2c3=O)cc1 |  | Active | inhibition [2]: Active; inhibition [3]: Active
CN1CCN(c2cc3nc4n(c(=O)c3cc2F)CCC/C4=C\c2ccc(NC(=O)CN3CCN(CCO)CC3)cc2)CC1 | < 1.4 |  | Activity [5]: Active
CN1CCN(c2cc3nc4n(c(=O)c3cc2F)CC/C4=C\c2ccc(NC(=O)CN3CCCC3)cc2)CC1 |  |  | Activity [5]: Active
CCN(CC)CCC(=O)Nc1ccc(/C=C2\CCn3c2nc2cc(N4CCN(C)CC4)c(F)cc2c3=O)cc1 | 1.4 |  | 
CN1CCN(c2cc3nc4n(c(=O)c3cc2F)CC/C4=C\c2ccc(NC(=O)CCN3CCCC3)cc2)CC1 | 1.6 | Active | 
CCN(CC)CCNC(=O)c1ccc(/C=C2\CCn3c2nc2cc(N4CCN(C)CC4)c(F)cc2c3=O)cc1 | 2.7 |  | 

Compound | Ratio [1] | inhibition [4] | other results
CCN(CC)CCC(=O)Nc1ccc(/C=C2\CCCn3c2nc2cc(N4CCN(C)CC4)c(F)cc2c3=O)cc1 |  | Active | 
CN1CCN(c2cc3nc4n(c(=O)c3cc2F)CCC/C4=C\c2ccc(C(=O)NCCN3CCCC3)cc2)CC1 |  | Active | 
CN1CCN(c2cc3nc4n(c(=O)c3cc2F)CC/C4=C\c2ccc(NC(=O)CCN3CCN(CCO)CC3)cc2)CC1 |  | Active | inhibition (Homo sapiens [7]): inactive; Kd [8]: 1.8 µM
CN1CCN(c2cc3nc4n(c(=O)c3cc2F)CC/C4=C\c2ccc(NC(=O)CCN3CCCCC3)cc2)CC1 |  | Active | 
CN1CCN(c2cc3nc4n(c(=O)c3cc2F)CC/C4=C\c2ccc(C(=O)NCCCN3CCCCC3)cc2)CC1 |  | Active | 
O=C(CCN1CCCC1)Nc1ccc(/C=C2\CCn3c2nc2cc(NC(=O)CCN4CCCC4)ccc2c3=O)cc1 | 2.5 |  | ΔTm [9]: 8.5 °C; Activity [5]: inactive
O=C(NCCN1CCCC1)c1ccc(/C=C2\CCn3c2nc2cc(NCCN4CCCC4)c(F)cc2c3=O)cc1 |  | Active | inhibition [2]: Active; inhibition [3]: Active
CN1CCN(c2cc3nc4n(c(=O)c3cc2F)CC/C4=C\c2ccc(C(=O)NCCN3CCCC3)cc2)CC1 |  | Active | 
CN1CCN(c2cc3nc4n(c(=O)c3cc2F)CCC/C4=C\c2ccc(NC(=O)CCN3CCN(CCO)CC3)cc2)CC1 |  |  | Activity [5]: Active
CN1CCN(c2cc3nc4n(c(=O)c3cc2F)CC/C4=C\c2ccc(C(=O)NCCCN3CCCC3)cc2)CC1 |  | Active | 
O=C(CCN1CCCC1)Nc1ccc(/C=C2\CCCn3c2nc2cc(NC(=O)CCN4CCCC4)ccc2c3=O)cc1 | 2.4 |  | ΔTm [9]: 3.4 °C; Kd [8]: 22.1 µM
CN(C)CCNC(=O)c1ccc(/C=C2\CCn3c2nc2cc(N4CCN(C)CC4)c(F)cc2c3=O)cc1 |  | Active | Activity [5]: Active
CCN(CC)CCNC(=O)c1ccc(/C=C2\CCCn3c2nc2cc(N4CCN(C)CC4)c(F)cc2c3=O)cc1 |  | Active | 
CCN(CC)CCNC(=O)c1ccc(/C=C2\CCn3c2nc2cc(NCCN4CCCC4)c(F)cc2c3=O)cc1 |  | Active | inhibition [2]: Active; inhibition [3]: Active
O=C(NCCN1CCCC1)c1ccc(/C=C2\CCn3c2nc2cc(NCCCN4CCCC4)c(F)cc2c3=O)cc1 |  | Active | inhibition [2]: Active; inhibition [3]: Active
CCN(CC)CCC(=O)Nc1ccc(/C=C2\CCn3c2nc2cc(N4CCCCC4)c(F)cc2c3=O)cc1 | 1.4 to 4.3 |  | 
